Assays:
[1] = system: test strain 923 pPvra-lux (USA300 MRSA); assay: Primary screen, relative growth in presence of oxacillin; settings: compound 10 μM with oxacillin 2 μg/mL, absorbance 24 h, <0.50 = dead cells = hit
[2] = system: vraSR promoter (Pvra-lux reporter in strain 923); assay: Primary screen, relative luminescence (vraSR expression); settings: primary screen, compound 10 μM with oxacillin 2 μg/mL; <0.50 = vraSR repressed = hit

O=C(Nc1nnc(-c2ccco2)o1)c1ccc(-c2ccccc2)cc1 [F0608-410]
RG avg (relative growth) [1]: −0.07 | RL avg (relative luminescence) [2]: −0.07

O=C(COc1ccc(Cl)cc1)Nc1nnc(-c2ccc(Br)cc2)o1 [F2518-483]
RG avg (relative growth) [1]: −0.02 | RL avg (relative luminescence) [2]: −0.04

O=C(Nc1nnc(-c2ccco2)o1)c1cc(-c2ccccc2)nc2ccccc12 [F0608-448]
RG avg (relative growth) [1]: 0.19 | RL avg (relative luminescence) [2]: −0.04

O=C(Nc1nnc(-c2ccncc2)o1)c1ccc(-c2ccccc2)cc1 [F0608-1080]
RG avg (relative growth) [1]: 0.03 | RL avg (relative luminescence) [2]: −0.04

COc1cc(OC)cc(-c2nnc(NC(=O)c3ccc(S(=O)(=O)N(C)c4ccccc4)cc3)o2)c1 [F0559-246]
RG avg (relative growth) [1]: −0.03 | RL avg (relative luminescence) [2]: −0.08

COc1ccc(-c2nnc(NC(=O)c3ccc(C(C)(C)C)cc3)o2)cc1 [F1374-495]
RG avg (relative growth) [1]: 0.04 | RL avg (relative luminescence) [2]: 0.37

O=C(Nc1nnc(-c2cccs2)o1)c1ccc2c(c1)CCCC2 [F1374-1012]
RG avg (relative growth) [1]: 0.16 | RL avg (relative luminescence) [2]: 0.49

O=C(Nc1nnc(-c2ccccn2)o1)c1c(F)cccc1F [F0608-895]
RG avg (relative growth) [1]: 0.03 | RL avg (relative luminescence) [2]: −0.06

COc1ccc(-c2nnc(NC(=O)c3cccc(C(F)(F)F)c3)o2)c(OC)c1 [F1374-562]
RG avg (relative growth) [1]: 0.02 | RL avg (relative luminescence) [2]: 0.38

COc1cc(-c2nnc(NC(=O)c3ccc(S(=O)(=O)N(C)c4ccccc4)cc3)o2)cc(OC)c1OC [F0559-307]
RG avg (relative growth) [1]: −0.04 | RL avg (relative luminescence) [2]: −0.08

CC1CC(C)CN(S(=O)(=O)c2ccc(C(=O)Nc3nnc(-c4ccc(Cl)s4)o3)cc2)C1 (stereo not drawn) [F0559-376]
RG avg (relative growth) [1]: −0.08 | RL avg (relative luminescence) [2]: −0.02

O=C(Nc1nnc(-c2ccc(F)cc2)o1)c1ccc(Br)s1 [F1374-140]
RG avg (relative growth) [1]: 0.02 | RL avg (relative luminescence) [2]: 0.35

O=C(Nc1nnc(-c2cccs2)o1)c1ccc(S(=O)(=O)N2CCCc3ccccc32)cc1 [F0559-350]
RG avg (relative growth) [1]: 0.43 | RL avg (relative luminescence) [2]: 0.11

O=C(Nc1nnc(-c2ccc(Cl)s2)o1)c1ccc2ncsc2c1 [F1374-1151]
RG avg (relative growth) [1]: −0.02 | RL avg (relative luminescence) [2]: 0.35

O=C(Nc1nnc(-c2ccc(Br)s2)o1)c1ccc2ncsc2c1 [F5093-111]
RG avg (relative growth) [1]: −0.02 | RL avg (relative luminescence) [2]: −0.02

COc1ccccc1-c1nnc(NC(=O)c2cccc(Br)c2)o1 [F1374-224]
RG avg (relative growth) [1]: −0.01 | RL avg (relative luminescence) [2]: 0.34

CCN(c1ccccc1)S(=O)(=O)c1ccc(C(=O)Nc2nnc(-c3ccccc3SC)o2)cc1 [F2645-115]
RG avg (relative growth) [1]: 0.13 | RL avg (relative luminescence) [2]: 0.45

O=C(Nc1nnc(-c2cc3ccccc3o2)o1)c1ccc2ncsc2c1 [F2273-492]
RG avg (relative growth) [1]: 0.25 | RL avg (relative luminescence) [2]: 0.24

O=C(Nc1nnc(-c2ccc(Br)cc2)o1)c1cccc(Br)c1 [F2518-447]
RG avg (relative growth) [1]: 0.02 | RL avg (relative luminescence) [2]: 0.00

CCN(CC)S(=O)(=O)c1ccc(C(=O)Nc2nnc(-c3cc(C)ccc3C)o2)cc1 [F2518-298]
RG avg (relative growth) [1]: −0.02 | RL avg (relative luminescence) [2]: 0.06

O=C(Nc1nnc(-c2ccc3c(c2)CCCC3)o1)c1cc(Cl)sc1Cl [F0608-668]
RG avg (relative growth) [1]: 0.02 | RL avg (relative luminescence) [2]: −0.06

Cc1cccc(C(=O)Nc2nnc(-c3ccc(Br)cc3)o2)c1 [F2518-436]
RG avg (relative growth) [1]: 0.00 | RL avg (relative luminescence) [2]: −0.06

O=C(Nc1nnc(-c2ccc3c(c2)CCCC3)o1)c1sc2ccccc2c1Cl [F0608-665]
RG avg (relative growth) [1]: 0.19 | RL avg (relative luminescence) [2]: −0.01

C=CCN(CC=C)S(=O)(=O)c1ccc(C(=O)Nc2nnc(-c3cc(OC)c(OC)c(OC)c3)o2)cc1 [F0559-279]
RG avg (relative growth) [1]: 0.40 | RL avg (relative luminescence) [2]: −0.09

O=C(Nc1nnc(-c2ccc(Br)cc2)o1)c1ccc2ncsc2c1 [F2518-558]
RG avg (relative growth) [1]: −0.02 | RL avg (relative luminescence) [2]: −0.08

COc1cccc2cc(C(=O)Nc3nnc(-c4ccc(Br)s4)o3)oc12 [F5093-196]
RG avg (relative growth) [1]: −0.01 | RL avg (relative luminescence) [2]: −0.01

O=C(Nc1nnc(C2=COCCO2)o1)c1cc(Cl)cc(Cl)c1 [F0608-258]
RG avg (relative growth) [1]: −0.05 | RL avg (relative luminescence) [2]: −0.06

COc1cccc2cc(-c3nnc(NC(=O)c4ccc5ncsc5c4)o3)oc12 [F2273-114]
RG avg (relative growth) [1]: 0.26 | RL avg (relative luminescence) [2]: 0.26

COc1ccc(OCc2noc(CNC(=O)Nc3ccc(Cl)c(Cl)c3)n2)cc1 [F5882-3269]
RG avg (relative growth) [1]: −0.01 | RL avg (relative luminescence) [2]: −0.02

COc1cccc(-c2nnc(NC(=O)c3cccc(C(F)(F)F)c3)o2)c1 [F1374-352]
RG avg (relative growth) [1]: 0.03 | RL avg (relative luminescence) [2]: 0.41

O=C(Nc1nnc(-c2ccc3c(c2)OCCO3)o1)c1ccc(C(=O)c2ccccc2)cc1 [F0608-19]
RG avg (relative growth) [1]: −0.02 | RL avg (relative luminescence) [2]: −0.12

O=C(Nc1nnc(-c2ccc3c(c2)CCCC3)o1)c1cccc(Cl)c1 [F0608-659]
RG avg (relative growth) [1]: −0.05 | RL avg (relative luminescence) [2]: −0.08

COc1cccc2cc(C(=O)Nc3nnc(-c4ccc(Cl)cc4Cl)o3)oc12 [F2518-1563]
RG avg (relative growth) [1]: 0.00 | RL avg (relative luminescence) [2]: −0.16

CCCCN(C)S(=O)(=O)c1ccc(C(=O)Nc2nnc(-c3ccc(Br)s3)o2)cc1 [F5093-101]
RG avg (relative growth) [1]: −0.02 | RL avg (relative luminescence) [2]: −0.04

O=C(Nc1nnc(-c2ccc(Cl)cc2)o1)c1cccs1 [F1374-757]
RG avg (relative growth) [1]: 0.02 | RL avg (relative luminescence) [2]: 0.29

Cc1ccc(-c2nnc(NC(=O)c3ccc(F)cc3)o2)cc1C [F2767-12]
RG avg (relative growth) [1]: 0.02 | RL avg (relative luminescence) [2]: 0.01

CCN(Cc1ccccc1)S(=O)(=O)c1ccc(C(=O)Nc2nnc(-c3ccc(OC)cc3)o2)cc1 [F0559-206]
RG avg (relative growth) [1]: 0.19 | RL avg (relative luminescence) [2]: −0.11

CCOc1cccc2cc(-c3nnc(NC(=O)c4sc5ccccc5c4Cl)o3)oc12 [F2273-238]
RG avg (relative growth) [1]: 0.26 | RL avg (relative luminescence) [2]: 0.19

Cc1ccc(NCC(O)Cn2c3ccc(Br)cc3c3cc(Br)ccc32)cc1 (stereo not drawn) [F0191-4604]
RG avg (relative growth) [1]: −0.07 | RL avg (relative luminescence) [2]: −0.06

O=C(Nc1nnc(-c2cc3ccccc3o2)o1)c1cccc(Cl)c1 [F2273-385]
RG avg (relative growth) [1]: 0.28 | RL avg (relative luminescence) [2]: 0.16

O=C(Nc1nnc(-c2ccc(Cl)s2)o1)c1nc2ccccc2s1 [F1374-1083]
RG avg (relative growth) [1]: 0.02 | RL avg (relative luminescence) [2]: 0.49

COc1cc(-c2nnc(NC(=O)c3cccc(Br)c3)o2)cc(OC)c1OC [F2517-14]
RG avg (relative growth) [1]: −0.03 | RL avg (relative luminescence) [2]: −0.07

COc1ccccc1-c1nnc(NC(=O)c2ccc(Cc3ccccc3)cc2)o1 [F1374-276]
RG avg (relative growth) [1]: 0.01 | RL avg (relative luminescence) [2]: 0.39

COc1ccc(-c2nnc(NC(=O)c3ccc(S(=O)(=O)N(C)Cc4ccccc4)cc3)o2)c(OC)c1 [F0559-398]
RG avg (relative growth) [1]: −0.07 | RL avg (relative luminescence) [2]: −0.11

CSc1ccccc1-c1nnc(NC(=O)c2cc(Cl)sc2Cl)o1 [F2645-67]
RG avg (relative growth) [1]: 0.02 | RL avg (relative luminescence) [2]: 0.37

COc1ccc(Cc2nnc(NC(=O)c3ccc(S(=O)(=O)N(C)Cc4ccccc4)cc3)o2)cc1 [F2368-617]
RG avg (relative growth) [1]: −0.04 | RL avg (relative luminescence) [2]: −0.07

COc1ccc(-c2nnc(NC(=O)c3cc(Cl)sc3Cl)o2)cc1OC [F2767-204]
RG avg (relative growth) [1]: −0.02 | RL avg (relative luminescence) [2]: −0.09

O=C(Nc1nnc(-c2ccc(Cl)s2)o1)c1ccc(-c2ccccc2)cc1 [F1374-1060]
RG avg (relative growth) [1]: 0.17 | RL avg (relative luminescence) [2]: 0.46

CC1CN(S(=O)(=O)c2ccc(C(=O)Nc3nnc(-c4ccc(Cl)s4)o3)cc2)CC(C)O1 (stereo not drawn) [F0559-377]
RG avg (relative growth) [1]: −0.08 | RL avg (relative luminescence) [2]: −0.09

O=C(Nc1nnc(-c2ccc3c(c2)OCCO3)o1)c1cc(-c2ccccc2)nc2ccccc12 [F0608-46]
RG avg (relative growth) [1]: −0.06 | RL avg (relative luminescence) [2]: −0.10

CC(C)n1nccc1C(=O)Nc1nnc(-c2cc(Cl)sc2Cl)o1 [F1374-2902]
RG avg (relative growth) [1]: 0.00 | RL avg (relative luminescence) [2]: 0.33

O=C(Nc1nnc(C2COc3ccccc3O2)o1)c1ccc(S(=O)(=O)N2CCCc3ccccc32)cc1 (stereo not drawn) [F0608-715]
RG avg (relative growth) [1]: −0.01 | RL avg (relative luminescence) [2]: −0.05

O=C(Nc1nnc(C2COc3ccccc3O2)o1)c1ccc(S(=O)(=O)N2CCc3ccccc3C2)cc1 (stereo not drawn) [F0608-728]
RG avg (relative growth) [1]: −0.02 | RL avg (relative luminescence) [2]: −0.01

COc1cccc(-c2nnc(NC(=O)c3ccc(S(=O)(=O)N(Cc4ccccc4)C(C)C)cc3)o2)c1 [F0559-178]
RG avg (relative growth) [1]: −0.06 | RL avg (relative luminescence) [2]: −0.07

COc1cc(OC)cc(-c2nnc(NC(=O)c3ccc(Cl)s3)o2)c1 [F1374-666]
RG avg (relative growth) [1]: 0.05 | RL avg (relative luminescence) [2]: 0.34

O=C(Nc1nnc(-c2ccc(Br)s2)o1)c1ccc(Cl)s1 [F5093-40]
RG avg (relative growth) [1]: 0.03 | RL avg (relative luminescence) [2]: −0.02

O=C(Nc1nnc(-c2ccc(Cl)s2)o1)c1cccc(F)c1 [F1374-1062]
RG avg (relative growth) [1]: 0.01 | RL avg (relative luminescence) [2]: 0.46

COc1cc(-c2nnc(NC(=O)c3ccc(S(=O)(=O)N4CCCc5ccccc54)cc3)o2)cc(OC)c1OC [F0559-320]
RG avg (relative growth) [1]: 0.24 | RL avg (relative luminescence) [2]: −0.08

O=C(Nc1nnc(-c2cc(Cl)ccc2Cl)o1)c1ccccc1 [F2518-2]
RG avg (relative growth) [1]: −0.02 | RL avg (relative luminescence) [2]: 0.01

O=C(Nc1nnc(-c2ccccc2)o1)c1ccc(Br)s1 [F1374-875]
RG avg (relative growth) [1]: 0.04 | RL avg (relative luminescence) [2]: 0.30
